Results on 65 compounds are retold here after a melting point compilation (Tetko et al.; mined from patent text by program, amines drawn as free bases though some values may be those of a salt).

As a reminder, the melting point is the temperature, or range, at which the solid turns liquid. The compound `CNc1c(F)c(C)c2c(=O)c(C(=O)O)cn(-c3cc(N)c(F)cc3F)c2c1C` yielded a melting point of 247 to 253 °C.

Compound `COC(=O)c1ccc(-c2nc(-c3ccc(Oc4ccccc4)cc3)no2)cc1` had a melting point of 112 to 113 °C.

With `CN1CCN(C2=Nc3ccc(F)cc3Nc3sc4cc(Br)ccc4c32)CC1`, the melting point lay within 219 to 221 °C.

Regarding `O=C(O)/C=C/c1ccc(OS(=O)(=O)C(F)(F)F)cc1`, the melting point turned out to be 194 °C.

Consider `NC(=O)N(O)CCNC(=O)c1cccc(Oc2cc(Cl)cc(Cl)c2)c1`, for which the melting point was in the range of 164 to 166 °C.

In the case of `O=C(CCCc1ccccc1)N[C@@H](Cc1ccccc1)C(=O)O`, the melting point worked out at 178 °C.

Compound `O=C(c1cc(Cl)ccc1NC(c1ccccc1)(c1ccccc1)c1ccccc1)C(F)(F)F` registered a melting point of 165 to 167 °C.

`COc1cc2c(c(OC)c1OC)-c1ccc([N+](=O)[O-])cc1COC2`: the melting point amounted to 161 °C.

On to `COc1ccc(S(=O)(=O)Nc2ccccc2Nc2ncccn2)cc1`, for which the melting point fell in the range of 193 to 195 °C.

For `c1ccc(OCn2c(Nc3cnon3)nc3ccccc32)cc1`, the melting point was 171 to 173 °C.

`COc1ccc2c(c1)C13CCN(C)C(C2)C1(O)CCOC3` (single isomer, unassigned; (+)) showed a melting point of 108 to 110 °C.

Take `CC(C)C(=O)O[C@@H]1C[C@H](C(=O)Nc2ccc(N3CCOCC3=O)cc2)N(C(=O)Nc2ccc(Cl)cc2)C1`: the melting point was found to be 129 °C.

For `CCN(CC)CCNC(=O)c1[nH]c(-c2ccc(Cl)cc2)c2ccccc12`, the melting point is 51 to 54 °C.

The compound `N#Cc1ccc(N2CCC(F)(F)C2)c2ccsc12` gave a melting point of 169 to 170 °C.

Take `CCCOc1ccc(-c2ccc3c(c2)C=C(C(=O)Nc2ccc(CN(C)C4CCOCC4)cc2)CCN3C=O)cc1`: the melting point was 207 to 209 °C.

Compound `CCOC(=O)c1cc(-c2ccccc2)n(-c2cccc(C(N)=O)c2)c1C` came in with a melting point of 238 to 239 °C.

`OC(Cc1cc(-c2ccccc2)on1)N1CCOCC1` (stereo not given) came in with a melting point of 134 to 136 °C.

As for `O=C(NCc1c(F)cccc1F)c1[nH]c2ccc(Cl)cc2c1S(=O)(=O)c1ccccc1`, the melting point lay within 274 to 280 °C.

Consider `COc1cc(C=C2CCN(C(=O)NO)C2=O)cc(OC)c1O`, for which the melting point is 203 to 204 °C.

In the case of `CNC(=S)n1nc(N=CN(C)C)nc1N`, the melting point was 184 to 188 °C.

`COC(=O)c1sccc1N=NN(C)C` yielded a melting point of 74 to 76 °C.

`CC(=O)c1cccc(Oc2cccc(-c3cccc(C(=O)NCCC#N)c3)n2)c1` came in with a melting point of 140 to 141 °C.

The compound `CNC(=O)c1ccc(N2CCN(Cc3cc(Cc4ccccc4)c4c(c3)NC(=O)C(C)O4)CC2)cc1` (stereo not given) came in with a melting point of 227 to 231 °C.

The compound `O=C1Cc2cccc(Nc3ccccc3)c2N1` had a melting point of 166 to 168 °C.

Take `C[C@H](NC(=O)OC(C)(C)C)C(=O)N[C@H]1CCNC1`: the melting point fell in the range of 137 to 138 °C.

The compound `Cc1[nH]c2ccccc2c1C[C@@H](N)C(=O)O` displayed a melting point of 244 to 246 °C.

In turn, `CCOC(=O)CC[C@H](NC(=O)c1ccc(CCc2cnc3nc(NC(=O)C(C)(C)C)nc(O)c3c2)cc1)C(=O)OCC` returned a melting point of more than 250 °C.

Take `O=C(O)CN1C(=O)C(=Cc2ccc(CO)o2)SC1=S`: the melting point lay within 206 to 209 °C.

For `CCCCc1nc2c(C)cccc2n1Cc1ccc([N+](=O)[O-])cc1`, the melting point fell in the range of 115 to 116 °C.

`COc1cc(C=CC#N)cc(OC)c1OC` registered a melting point of 92.1 °C.

The compound `Cn1c2c(c(=O)n3nc(-c4ccccc4)cc13)CN(C1CCCCC1)C2=O` showed a melting point of 276 to 279 °C.

Compound `COc1ccccc1Nc1cccc2c1C(=O)N(C1CCC(=O)NC1=O)C2=O` (stereo not given) yielded a melting point of 223 to 225 °C.

As to `Cc1ccc(CN(C)C(=O)C23CC4CC(CC(C4)C2)C3)cc1`, the melting point lay within 93 to 95 °C.

`CCCSc1ccc(C(=O)C(=O)OCC)[nH]1` returned a melting point of 34 °C.

For the compound `O=[N+]([O-])c1c(Br)nn(CCO)c1NCc1ccccc1`, the melting point was 133 to 135 °C.

Compound `Cc1oc(-c2cc3ccccc3s2)nc1COc1ccc(CCCn2ccnc2)cc1` had a melting point of 142 to 143 °C.

Compound `O=C1c2c(-c3ccccc3F)noc2CCC1CCCN1CCN(c2ccccn2)CC1` (stereo not given) had a melting point of 94 to 96 °C.

On to `O=C(Nc1nccs1)c1nc(-c2cccc3ccccc23)[nH]c1-c1ccc(CO)cc1`, for which the melting point is 226 to 228 °C.

In turn, `Cc1cccc(C(C)C)c1NC(=O)NC1(c2cccs2)CCCCC1` had a melting point of 230 to 232 °C.

Take `COc1ccc2c3c(oc2c1)CC(C(=O)O)CC3` (stereo not given): the melting point fell in the range of 175 to 180 °C.

Take `Cc1ccc(S(=O)(=O)N2CCC[C@H](CC#N)c3ccccc32)cc1`: the melting point is 106 °C.

In turn, `CCCc1c(S)ccc2c(C)c(CC(=O)OC)c(=O)oc12` displayed a melting point of 131 to 132 °C.

`O=C1NCCN1c1ccc(S(=O)(=O)Nc2cccc(Cl)c2)cc1` showed a melting point of 180 to 182 °C.

In the case of `CC(C)n1nc(-c2nc(Br)c(N)nc2-c2ccccc2)ccc1=O`, the melting point lay within 204 to 206 °C.

With `CCCCCCCCCCCCCCCCCCOc1cc(OCc2ccc3ccccc3n2)cc(N(CC(=O)OC)CC(=O)OC)c1`, the melting point was 76 to 79 °C.

`Brc1csc(-c2cn([C@H]3CN4CCC3CC4)nn2)c1` had a melting point of 106 °C.

`CCC1CCn2c(nc(-c3ccncc3)cc2=O)N1` (stereo not given): the melting point is 244 to 246 °C.

Compound `CNC(=O)ON=C1SCOC1C` (stereo not given) returned a melting point of 70 to 71.5 °C.

`OCc1ccc(Oc2cccnc2)c(C(F)(F)F)c1` displayed a melting point of 96 °C.

`COC(=O)C(C)(Cc1ccc(OCCc2nc(-c3ccccc3)oc2C)cc1)C(=O)OC` came in with a melting point of 75.1 to 76 °C.

The compound `Nc1ccc(C(=O)c2cc(F)ccc2F)cc1` gave a melting point of 101 to 103 °C.

With `CC(=O)C1CCC2C3CC(C)C4CC(O)CCC4(C)C3C(O)CC12C` (stereo not given), the melting point lay in the range of 211 to 213 °C.

Compound `CCOC(=O)/C=C/c1oc2cccc(O)c2c1C` gave a melting point of 180 to 182 °C.

`Cc1sc2nc3ccc(C(=O)O)cn3c(=O)c2c1C` gave a melting point of 364 to 368 °C.

`Cc1c(Cl)ccc(C(=O)O)c1Cl` displayed a melting point of 173 to 175 °C.

Turning to `Cc1oc(-c2ccccc2)nc1COc1ccc([N+](=O)[O-])cn1`, the melting point was 142 to 143 °C.

`O=C(c1ccccc1)n1ccc2ccccc21` showed a melting point of 54 to 55 °C.

`COc1ccc(CONS(C)(=O)=O)cc1` showed a melting point of 114 to 116 °C.

`COc1ccc(C(=O)Nc2c(Cl)cncc2Cl)c2cc(C)oc12` gave a melting point of 233 °C.

As for `Cn1c2ccc(Cl)cc2c2c(CC(=O)O)nn(-c3ccccc3)c(=O)c21`, the melting point fell in the range of 206 to 208 °C.

With `CC(=NNc1ccc(Cl)c2c1CC(C)O2)C(=O)O` (stereo not given), the melting point is 155 to 157 °C.

Compound `COc1ccc2c(c1)CN(C(N)=O)N=C2Cc1c(Cl)cncc1Cl` yielded a melting point of more than 230 °C.

As to `CCOc1nc(NCc2ccco2)nc(Nc2ccc3[nH]c(-c4cccs4)nc3c2)n1`, the melting point fell in the range of 170 to 172 °C.

As for `COc1cc(C(=O)CBr)ccc1OC(C)=O`, the melting point came to 82 °C.

As for `CCOC(=O)[C@H](Cc1cc(O)c(O)cc1I)NC=O`, the melting point was in the range of 131 to 132 °C.
